“And” between values parts separate entries of the source, which are not always exact repeats. Identical values can stand only once. Like-named read-outs stand apart in the source and are kept apart here.
Tests used:
[1] = tested on: Overweight and obese adults; experiment: Phase 1 blinded, placebo-controlled, dose-ranging clinical study (NCT02475317), fecal bile acid excretion
Procedure: Participants consumed a low-fiber diet (<10 mg/day) for 2 days before randomization and during the 7-day treatment period. Measurements were taken of fBA, sBA concentration, and serum 7αC4 concentration (which is a biomarker of bile acid synthesis) prior to drug administration and at day 7.

[2] = tested on: Children with Alagille Syndrome
Procedure: Children aged 1-18 years with a diagnosis of ALGS and evidence of cholestasis were eligible to enroll in the ICONIC clinical study, see Tables 12-14. During a long-term extension, participants with sBA levels above the upper limit of normal and/or an ITCHRO(OBS) score >1.5 were eligible for the 400 μg/kg BID dose (all participants received the 400 μg/kg BID dose). Inclusion criteria for the ICONIC study included having cholestasis, which was defined as at least one of 1) sBA concentration (total sBA) >3× the upper limit of normal, 2) serum conjugated bilirubin concentration >1 mg/dL, 3) fat-soluble vitamin deficiency not otherwise explained, 4) serum gamma-glutamyl transferase concentration >3× the upper limit of normal, and 3) intractable pruritus explainable only by liver disease. Inclusion criteria also included having significant pruritus, which was defined as an average daily score of >2 on the ITCHRO(OBS) scale for 2 consecutive weeks (0=no pruritus; 4=most severe pruritus). Exclusion criteria included having surgically disrupted enterohepatic circulation, a liver transplant, decompensated cirrhosis, or having any liver disease other than ALGS.
sBA responders were defined as those patients achieving ≥50% reduction from baseline in sBA at week 12 or 18. ITCHRO responders were defined as those patients achieving at least a 1-point reduction from Baseline in weekly morning ITCHRO(OBS) score at week 12 or 18.
In the open label extension, the effect of higher doses was explored by increasing dosage to a maximum of 400 μg/kg BID in eligible participants.
Efficacy assessments were based on changes from baseline in sBA concentration, weekly average ITCHRO(OBS) scores (0, none; 4, most severe), CSS score (0, none; 4 most severe), and Clinician Xanthoma Scale score (0, none; 4, disabling). […] During the long-term extension, efficacy assessments were conducted every 12 weeks. Serum total cholesterol and serum 7αC4 concentration were also monitored during the ICONIC clinical study, among other measures.
sBA were measured using a fully validated liquid chromatography-electrospray ionization-mass electrospray (LC-ESI-MS) method using stable-isotope dilution analysis to measure serum concentrations of principal bile acids (cholic, chenodeoxycholic, ursodeoxycholic, deoxycholic acid, lithocholic, and their corresponding glycine and taurine conjugates). Serum samples were analyzed in the Division of Pathology and Laboratory Medicine, Cincinnati Children's Hospital Medical Center according to SOP #PATH.CMS.1033. Calibration standards of individual bile acids were in the range of 50-25,000 ng/mL and Quality Control samples were prepared at concentrations of 100, 500, 1000, 2500, and 20000 ng/mL. The intra- and inter-assay imprecision of the method for individual bile acids measured was within the accepted GLP quality assurance guidelines of <15% coefficient of variance for these QC samples. The lower limit of quantification of the assay was set at 100 ng/mL and the imprecision at this concentration was <20%. The limit of detection of the assay was 5 ng/mL. Total sBA is represented by the sum of the individual bile acid species measured.

[3] = Withdrawal-Week 22, Maralixibat group
[4] = first 18 weeks of treatment, 400 μg/kg QD
[5] = one line per Subject ID (Table 18)
[6] = one line per Subject ID (Table 19)
[7] = sBA Normalization (<8.5 μmol/L)

## maralixibat
[1]; all doses
  treatment-emergent adverse events, severity: mild, and none were serious
[1]; baseline to day 7
  Mean serum 7αC4: increased
[2]; 400 μg/kg QD then 400 μg/kg BID
  weight Z-scores: dose-dependent increase in weight Z-scores
[2]; ITCHRO(OBS) weekly morning average score, one line per Subject ID (Table 18)
  Change in ItchRO from Baseline to Week 48: 0.49 and −0.45 and 1.29 and −3.86 and 0.00 and −2.57 and −1.86 (2×) and −1.71 (2×) and −1.00 (2×) and −1.29 and −1.67 and −1.14 and −1.03 and −3.29 (2×) and −3.43 and −2.50 and −2.71 (2×) and −3.50 and −2.29 and −0.17 and −1.43 and −0.83 and −0.12
[2]; Normalization (<8.5 μmol/L)
  sBA response, Week 48 (N = 28) n (%): 1 (3.6%)
[2]; Open-label Week 18
  ItchRO (Obs) responders, Decrease from baseline ≥1: 67.7%
  ItchRO (Obs) responders, Decrease from baseline ≥1.25: 58.1%
  ItchRO (Obs) responders, Decrease from baseline ≥1.5: 51.6%
[2]; Open-label Week 48
  ItchRO (Obs) responders, Decrease from baseline ≥1: 72.4%
  ItchRO (Obs) responders, Decrease from baseline ≥1.25: 58.6%
  ItchRO (Obs) responders, Decrease from baseline ≥1.5: 51.7%
[2]; Week 48, n = 15
  C4, Mean: 20.4 ng/mL
  Serum cholesterol, Mean: 340.3 mg/dL
[2]; Week 191, n = 15
  C4, Mean: 30.4 ng/mL
  Serum cholesterol, Mean: 277.5 mg/dL
[2]; [3]
  ItchRO (Obs) responders, Decrease from baseline ≥1: 53.8%
  ItchRO (Obs) responders, Decrease from baseline ≥1.25: 46.2%
  ItchRO (Obs) responders, Decrease from baseline ≥1.5: 23.1%
[2]; after 98 weeks, across participants
  study days with minimal or no pruritus (ITCHRO(OBS)≤1): over 89%
[2]; all participants by week 48
  Clinician xanthoma scale scores: improved significantly
[2]; at 191 weeks
  CSS score, mean reduction: 2.4 points
  ITCHRO(OBS) score, mean change from baseline: −2.5
  sBA levels, reduction from baseline: about 57%
[2]; at 193 weeks
  ITCHRO(OBS) final score: about 0.33
  ITCHRO(OBS) score, mean reduction: over 2 points
[2]; by week 48, all participants
  CSS final average score: about 1.5
  CSS scores, average decrease: over 1.5 points
[2]; by week 191
  Clinician Xanthoma Score, reduction from baseline: 0.7 points
[2]; by week 193 (second statement of b611)
  ITCHRO(OBS) scores, average decrease relative to baseline: over 1.5 points
[2]; core study and extension
  PedsQL Multidimensional Fatigue Scale scores: Improvements
[2]; core study and extension, over three years
  tolerability: well tolerated
[2]; doses up to 800 μg/kg/day, treatment duration up to 4 years
  tolerability: generally well tolerated
[2]; [4]
  ITCHRO(OBS) scores, mean change from baseline: −1.7
  sBA concentration, decrease: 31%
[2]; [5]
  Serum Bile Acid, Change from Baseline to Week 48: −166.3 μmol/L and −281.4 μmol/L and 166.4 μmol/L and −121.1 μmol/L and 4.3 μmol/L (2×) and −251.0 μmol/L and 3.3 μmol/L and −27.3 μmol/L and −155.5 μmol/L and −240.2 μmol/L and 9.0 μmol/L and 143.1 μmol/L and −112.2 μmol/L and 16.4 μmol/L and −10.9 μmol/L and −16.9 μmol/L and 54.5 μmol/L and −620.4 μmol/L and −23.9 μmol/L and −377.3 μmol/L and −205.9 μmol/L and −270.4 μmol/L and 25.5 μmol/L and −203.6 μmol/L and −96.4 μmol/L and −33.9 μmol/L and −56.4 μmol/L
  Serum Bile Acid, Week 48: 131.8 µmol/L and 98.5 µmol/L and 578.1 µmol/L and 20.8 µmol/L and 333.0 µmol/L and 119.6 µmol/L and 117.7 µmol/L and 492.6 µmol/L and 427.9 µmol/L and 199.8 µmol/L and 29.2 µmol/L and 891.6 µmol/L and 163.4 µmol/L and 60.2 µmol/L and 12.0 µmol/L and 23.6 µmol/L and 126.1 µmol/L and 37.0 µmol/L and 7.0 µmol/L and 101.9 µmol/L and 293.3 µmol/L and 65.0 µmol/L and 110.9 µmol/L and 35.8 µmol/L and 208.0 µmol/L and 55.8 µmol/L and 15.6 µmol/L and 22.9 µmol/L
[2]; [6]
  ItchRO(Obs) Weekly Morning Average Score, Change from Baseline to Week 48: −0.12 and 0.49 and −0.45 and 1.29 and −3.86 and 0.00 and −2.57 and −1.86 (2×) and −1.71 (2×) and −1.00 (2×) and −1.29 and −1.67 and −1.14 and −1.03 and −3.29 (2×) and −3.43 and −2.50 and −2.71 (2×) and −3.50 and −2.29 and −0.17 and −1.43 and −0.83
  ItchRO(Obs) Weekly Morning Average Score, Week 48: 2.71 and 3.20 and 1.83 and 3.71 and 0.14 and 1.86 and 0.71 and 1.14 (2×) and 0.29 (2×) and 2.00 (2×) and 1.71 (2×) and 1.00 and 1.40 and 0.00 (7×) and 1.43 and 1.57 and 3.50 and 2.17
[2]; participants in the ICONIC clinical study
  Height Z-score, increase from baseline: 0.5
[2]; patients (N=15) given 400 μg/kg BID after 400 μg/kg QD for in excess of about 40 weeks
  growth after dose increase: further increase in growth from baseline
[2]; randomized withdrawal
  ITCHRO(OBS), LS mean difference maralixibat vs placebo: −1.5
[2]; randomized withdrawal (week 18-22)
  sBA levels, least squares mean difference maralixibat vs placebo: −114.0
[2]; [7]
  ItchRO(Obs) Weekly Morning Average Score, Average Change from Baseline: −3.50
  ItchRO(Obs) Weekly Morning Average Score, Week 48 Average Score: 0.00
[2]; sBA ≥50% Reduction
  ItchRO(Obs) Weekly Morning Average Score, Average Change from Baseline: −1.86
  ItchRO(Obs) Weekly Morning Average Score, Week 48 Average Score: 1.07
[2]; sBA ≥60% Reduction
  ItchRO(Obs) Weekly Morning Average Score, Average Change from Baseline: −2.12
  ItchRO(Obs) Weekly Morning Average Score, Week 48 Average Score: 0.82
[2]; sBA ≥70% Reduction
  ItchRO(Obs) Weekly Morning Average Score, Average Change from Baseline: −2.31
  ItchRO(Obs) Weekly Morning Average Score, Week 48 Average Score: 0.62
[2]; sBA ≥80% Reduction
  ItchRO(Obs) Weekly Morning Average Score, Average Change from Baseline: −2.79
  ItchRO(Obs) Weekly Morning Average Score, Week 48 Average Score: 0.11
[2]; sBA ≥90% Reduction
  ItchRO(Obs) Weekly Morning Average Score, Average Change from Baseline: −2.71
  ItchRO(Obs) Weekly Morning Average Score, Week 48 Average Score: 0.00
[2]; week 48
  relation between reduction in sBA concentration and reduction of severity of pruritus (ITCHRO(OBS)): positive correlation
[2]; ≥50% Reduction
  sBA response, Week 48 (N = 28) n (%): 13 (46.4%)
[2]; ≥60% Reduction
  sBA response, Week 48 (N = 28) n (%): 11 (39.3%)
[2]; ≥70% Reduction
  sBA response, Week 48 (N = 28) n (%): 8 (28.6%)
[2]; ≥80% Reduction
  sBA response, Week 48 (N = 28) n (%): 4 (14.3%)
[2]; ≥90% Reduction
  sBA response, Week 48 (N = 28) n (%): 1 (3.6%)
